Test results as given in ChEMBL document CHEMBL3612055, “Design, synthesis and biological evaluation of 1,3-diphenyl-1H-pyrazole derivatives containing benzimidazole skeleton as potential anticancer and apoptosis inducing agents” (Eur J Med Chem, 2015).

How the values were obtained:
MCF7 = assay: Anticancer activity against human MCF7 cells assessed as reduction in cell growth incubated for 48 hrs by MTT assay; format: functional, cell-based; settings: MCF7, 48 h
HeLa = assay: Anticancer activity against human HeLa cells assessed as reduction in cell growth incubated for 48 hrs by MTT assay; format: functional, cell-based
HaCaT = assay: Cytotoxic activity against human HaCaT cells assessed as reduction in cell growth incubated for 48 hrs by MTT assay; format: cell-based
A549 = assay: Anticancer activity against human A549 cells assessed as reduction in cell growth incubated for 48 hrs by MTT assay; format: functional, cell-based; settings: A549, 48 h

Row | Structure (SMILES) | IC50 (MCF7) | IC50 (HeLa) | IC50 (HaCaT) | IC50 (A549)
1 | COc1ccc(-c2nn(-c3ccccc3)cc2-c2nc3cc(Cl)ccc3[nH]2)cc1 | 1.76 µM | 1.29 µM | > 50 µM | 3.13 µM
2 | Cc1cc2nc(-c3cn(-c4ccccc4)nc3-c3ccc(F)cc3)[nH]c2cc1C | 27.2 µM | 10.2 µM | > 50 µM | > 50 µM
3 | COc1ccc(-c2nn(-c3ccccc3)cc2-c2nc3cc(C)ccc3[nH]2)cc1 | 6.61 µM | 3.29 µM | > 50 µM | 5.07 µM
4 | COc1ccc(-c2nn(-c3ccccc3)cc2-c2nc3cc(OC)ccc3[nH]2)cc1 | 3.13 µM | 1.14 µM | > 50 µM | 22.7 µM
5 | COc1ccc(-c2nn(-c3ccccc3)cc2-c2nc3ccccc3[nH]2)cc1 | 2.54 µM | 3.67 µM | > 50 µM | 2.36 µM
6 | Fc1ccc(-c2nn(-c3ccccc3)cc2-c2nc3cc(C(F)(F)F)ccc3[nH]2)cc1 | 2.13 µM | 3.52 µM | > 50 µM | 2.34 µM
7 | Clc1ccc(-c2nn(-c3ccccc3)cc2-c2nc3cc4ccccc4cc3[nH]2)cc1 | 13.9 µM | 8.13 µM | > 50 µM | 7.73 µM
8 | Clc1ccc(-c2nn(-c3ccccc3)cc2-c2nc3ccccc3[nH]2)cc1 | 3.03 µM | 1.65 µM | > 50 µM | 5.96 µM
9 | O=Cc1cn(-c2ccccc2)nc1-c1ccc(F)cc1 | 24.8 µM | 16.6 µM | > 50 µM | 8.66 µM
10 | Cc1ccc2[nH]c(-c3cn(-c4ccccc4)nc3-c3ccc(F)cc3)nc2c1 | 1.12 µM | 3.63 µM | > 50 µM | 1.44 µM
11 | Fc1ccc(-c2nn(-c3ccccc3)cc2-c2nc3cc(Cl)ccc3[nH]2)cc1 | 2.23 µM | 2.77 µM | > 50 µM | 1.32 µM
12 | FC(F)(F)c1ccc2[nH]c(-c3cn(-c4ccccc4)nc3-c3ccc(Cl)cc3)nc2c1 | 4.21 µM | 4.42 µM | 41.8 µM | 3.36 µM
13 | COc1ccc(-c2nn(-c3ccccc3)cc2-c2nc3cc(C)c(C)cc3[nH]2)cc1 | 12.8 µM | 8.93 µM | 21.4 µM | 5.85 µM
14 | Clc1ccc(-c2nn(-c3ccccc3)cc2-c2nc3cc(Br)ccc3[nH]2)cc1 | 1.92 µM | 2.16 µM | > 50 µM | 2.17 µM
15 | COc1ccc2[nH]c(-c3cn(-c4ccccc4)nc3-c3ccc(F)cc3)nc2c1 | 0.97 µM | 7.51 µM | > 50 µM | 1.96 µM
16 | Cc1cc2nc(-c3cn(-c4ccccc4)nc3-c3ccc(Cl)cc3)[nH]c2cc1C | 13 µM | 21.8 µM | > 50 µM | 17.7 µM
17 | Fc1ccc(-c2nn(-c3ccccc3)cc2-c2nc3cc(Cl)c(Cl)cc3[nH]2)cc1 | 6.93 µM | 11.6 µM | 44.6 µM | 15.7 µM
18 | Fc1ccc(-c2nn(-c3ccccc3)cc2-c2nc3cc4ccccc4cc3[nH]2)cc1 | 9.24 µM | 23.6 µM | > 50 µM | 21.5 µM
19 | Clc1cc2nc(-c3cn(-c4ccccc4)nc3-c3ccccc3)[nH]c2cc1Cl | 7.56 µM | 13.4 µM | 29.7 µM | 11.1 µM
20 | COc1ccc(-c2nn(-c3ccccc3)cc2-c2nc3cc(F)ccc3[nH]2)cc1 | 1.51 µM | 1.74 µM | > 50 µM | 1.98 µM

Row | Structure (SMILES) | IC50 (MCF7) | IC50 (HeLa) | IC50 (HaCaT) | IC50 (A549)
21 | FC(F)(F)c1ccc2[nH]c(-c3cn(-c4ccccc4)nc3-c3ccccc3)nc2c1 | 2.66 µM | 1.92 µM | 37.2 µM | 5.93 µM
22 | Cc1ccc2[nH]c(-c3cn(-c4ccccc4)nc3-c3ccc(Cl)cc3)nc2c1 | 8.23 µM | 5.36 µM | > 50 µM | 4.64 µM
23 | Clc1ccc(-c2nn(-c3ccccc3)cc2-c2nc3cc(Cl)c(Cl)cc3[nH]2)cc1 | 48.3 µM | 12.1 µM | > 50 µM | 19.1 µM
24 | c1ccc(-c2nn(-c3ccccc3)cc2-c2nc3cc4ccccc4cc3[nH]2)cc1 | 12.6 µM | 21.3 µM | > 50 µM | 19.3 µM
25 | COc1ccc(-c2nn(-c3ccccc3)cc2-c2nc3cc4ccccc4cc3[nH]2)cc1 | 7.46 µM | 12.4 µM | > 50 µM | 11.9 µM
26 | O=c1[nH]cc(F)c(=O)[nH]1 [FLUOROURACIL] | 2.36 µM | 4.6 µM | 15.3 µM | 2.13 µM
27 | Fc1ccc(-c2nn(-c3ccccc3)cc2-c2nc3ccccc3[nH]2)cc1 | 3.2 µM | 2.33 µM | > 50 µM | 1.51 µM
28 | COc1ccc(-c2nn(-c3ccccc3)cc2-c2nc3cc(C(F)(F)F)ccc3[nH]2)cc1 | 5.73 µM | 2.76 µM | > 50 µM | 4.82 µM
29 | O=Cc1cn(-c2ccccc2)nc1-c1ccc(Cl)cc1 | 9.65 µM | 15.5 µM | > 50 µM | 29.5 µM
30 | COc1ccc(-c2nn(-c3ccccc3)cc2-c2nc3cc(Br)ccc3[nH]2)cc1 | 1.83 µM | 1.06 µM | > 50 µM | 6.37 µM
31 | Fc1ccc(-c2nn(-c3ccccc3)cc2-c2nc3cc(Br)ccc3[nH]2)cc1 | 3.21 µM | 4.94 µM | 21.8 µM | 5.83 µM
32 | COc1ccc2[nH]c(-c3cn(-c4ccccc4)nc3-c3ccccc3)nc2c1 | 1.59 µM | 2.87 µM | > 50 µM | 1.23 µM
33 | Cc1cc2nc(-c3cn(-c4ccccc4)nc3-c3ccccc3)[nH]c2cc1C | > 50 µM | 41.5 µM | > 50 µM | 14.5 µM
34 | Clc1ccc2[nH]c(-c3cn(-c4ccccc4)nc3-c3ccccc3)nc2c1 | 1.96 µM | 3.48 µM | > 50 µM | 2.37 µM
35 | COc1ccc(-c2nn(-c3ccccc3)cc2-c2nc3cc(Cl)c(Cl)cc3[nH]2)cc1 | 13.2 µM | 6.6 µM | > 50 µM | 7.33 µM
36 | Cc1ccc2[nH]c(-c3cn(-c4ccccc4)nc3-c3ccccc3)nc2c1 | 5.94 µM | 6.56 µM | > 50 µM | 3.61 µM
37 | Fc1ccc2[nH]c(-c3cn(-c4ccccc4)nc3-c3ccccc3)nc2c1 | 2.43 µM | 3.61 µM | > 50 µM | 1.72 µM
38 | c1ccc(-c2nn(-c3ccccc3)cc2-c2nc3ccccc3[nH]2)cc1 | 3.19 µM | 1.55 µM | > 50 µM | 2.71 µM
39 | Fc1ccc2[nH]c(-c3cn(-c4ccccc4)nc3-c3ccc(Cl)cc3)nc2c1 | 2.83 µM | 2.77 µM | > 50 µM | 4.61 µM
40 | COc1ccc2[nH]c(-c3cn(-c4ccccc4)nc3-c3ccc(Cl)cc3)nc2c1 | 1.76 µM | 3.63 µM | > 50 µM | 2.42 µM
